Our source for the Activity values is ChEMBL document CHEMBL5236656, “The effect of diphenylethane side-chain substituents on dibenzocyclohexadiene formation and their inhibition of α-synuclein aggregation in vitro” (Bioorg Med Chem, 2023).

In experiment [1] the target is Alpha-synuclein (Homo sapiens) (UniProt P37840). The experiment in a line: Inhibition of alpha-Synuclein (unknown origin) aggregation assessed as aggregation by measuring ThT fluorescence at 500 uM incubated for 5 days by ThT fluorescence assay (reference value: 100%). On the set-up: scale not given: the % may be the effect or the level left. The settings on record: time 5.0 day.

Experiment [2] has the same target. The experiment is described as follows: Inhibition of alpha-Synuclein (unknown origin) aggregation assessed as aggregation by measuring ThT fluorescence at 100 uM incubated for 5 days by ThT fluorescence assay (reference value: 100%). The settings on record: time 5.0 day. On the set-up: scale not given: the % may be the effect or the level left.

In the case of `Oc1cc2ccc3cc(O)c(O)cc3c2cc1O`, the Activity was 25.9% in experiment [1] and 33.6% in experiment [2].
The corresponding values for `CC(c1ccc(O)c(O)c1)C(C)c1ccc(O)c(O)c1` (mixture of isomers) are 6.1% and 31.8%.
Taken in the same sequence, the figures for `Cc1c(C)c2cc(O)c(O)cc2c2cc(O)c(O)cc12` were 19.3% and 47.3%.
For `Oc1cc2c(cc1O)-c1c(ccc(O)c1O)CC2`, the Activity in experiment [1] is 10.7%; in experiment [2], 27.8%.
As to `CC1(C)c2cc(O)c(O)cc2-c2cc(O)c(O)cc2C1(C)C`, the results for the Activity in experiment [1] and in experiment [2] were 39.8% and 56.1%, respectively.
Turning to `Oc1ccc(CCc2ccc(O)c(O)c2)cc1O`, the Activity in experiment [1] was determined as 8.1%; in experiment [2], 35.6%.
For the compound `CC1(C)c2cc(O)c(O)cc2-c2c(ccc(O)c2O)C1(C)C`, the Activity in experiment [1] turned out to be 15.5%; in experiment [2] it was 36.1%.
Taken in the same sequence, the figures for `CC(C)(c1ccc(O)c(O)c1)C(C)(C)c1ccc(O)c(O)c1` were 9.2% and 44.4%.
The corresponding values for `Oc1cc2c(cc1O)-c1cc(O)c(O)cc1CC2` are 16.8% and 22.2%.
In the case of `C[C@@H]1Cc2cc(O)c(O)cc2-c2cc(O)c(O)cc2C[C@@H]1C`, the Activity in experiment [1] stood at 13.6%; in experiment [2], 28.6%.
Consider `CC1c2cc(O)c(O)cc2-c2c(ccc(O)c2O)C1C` (configuration not stated), for which the values for the Activity in experiment [1] and in experiment [2] were 45.6% and 66.1%, respectively.
